By IC50 is commonly meant the concentration needed to halve the response being measured.

Holding throughout (format): biochemical
The target in one assay is T1, mAC1 (Homo sapiens, UniProt Q08828).
T1 construct: Human mAC genes were from GenScript and fitted with a C-terminal FLAG-tag; FLAG (C); made in house; host or cells: HEK293, permanently transfected; membrane preparation
In words: AC assay, Gsα-stimulated mAC1 in membranes from transfected HEK293 cells. As to conditions: for activity [%] (100% = 300nM Gsα stimulation): mAC1. Summed up: (§1)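 cAMP formation was quantified by HTRF against a cAMP standard curve, with EC50 or IC50 derived by curve fitting. Reactions contained 1 mM ATP, 2 mM MgCl2, 3 mM creatine phosphate, 60 μg/ml creatine kinase and 50 mM MOPS pH 7.5, using membranes of stably transfected HEK293 cells carrying FLAG-tagged human AC.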

The target of the next assay is T2, mAC2 (Homo sapiens, UniProt Q08462).
T2 construct: Human mAC genes were from GenScript and fitted with a C-terminal FLAG-tag; FLAG (C); made in house; host or cells: HEK293, permanently transfected; membrane preparation
In words: AC assay, Gsα-stimulated mAC2 in membranes from transfected HEK293 cells. As to conditions: Figure 5-figure supplement 1 left, 20 µM. Summed up:
as §1

The target of the next assay is T3, mAC3 (Homo sapiens, UniProt O60266).
T3 construct: Human mAC genes were from GenScript and fitted with a C-terminal FLAG-tag; FLAG (C); made in house; host or cells: HEK293, permanently transfected; membrane preparation
In words: AC assay, Gsα-stimulated mAC3 in membranes from transfected HEK293 cells. As to conditions: for mAC3 activity [%] (100% = 300nM Gsα stimulation): individual experiments; for activity [%] (100% = 300nM Gsα stimulation): mAC3. Summed up:
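EC50 and IC50 values come from cAMP production, read with a Cisbio cAMP kit and converted via a standard curve. Assay mix held 1 mM ATP, 2 mM MgCl2, 3 mM creatine phosphate and 60 μg/ml creatine kinase in 50 mM MOPS pH 7.5, using transfected HEK293 membranes.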

A further assay addresses T4, mAC4 (Homo sapiens, UniProt Q8NFM4).
T4 construct: Human mAC genes were from GenScript and fitted with a C-terminal FLAG-tag; FLAG (C); made in house; host or cells: HEK293, permanently transfected; membrane preparation
T4 sequence (Q8NFM4 1-1077): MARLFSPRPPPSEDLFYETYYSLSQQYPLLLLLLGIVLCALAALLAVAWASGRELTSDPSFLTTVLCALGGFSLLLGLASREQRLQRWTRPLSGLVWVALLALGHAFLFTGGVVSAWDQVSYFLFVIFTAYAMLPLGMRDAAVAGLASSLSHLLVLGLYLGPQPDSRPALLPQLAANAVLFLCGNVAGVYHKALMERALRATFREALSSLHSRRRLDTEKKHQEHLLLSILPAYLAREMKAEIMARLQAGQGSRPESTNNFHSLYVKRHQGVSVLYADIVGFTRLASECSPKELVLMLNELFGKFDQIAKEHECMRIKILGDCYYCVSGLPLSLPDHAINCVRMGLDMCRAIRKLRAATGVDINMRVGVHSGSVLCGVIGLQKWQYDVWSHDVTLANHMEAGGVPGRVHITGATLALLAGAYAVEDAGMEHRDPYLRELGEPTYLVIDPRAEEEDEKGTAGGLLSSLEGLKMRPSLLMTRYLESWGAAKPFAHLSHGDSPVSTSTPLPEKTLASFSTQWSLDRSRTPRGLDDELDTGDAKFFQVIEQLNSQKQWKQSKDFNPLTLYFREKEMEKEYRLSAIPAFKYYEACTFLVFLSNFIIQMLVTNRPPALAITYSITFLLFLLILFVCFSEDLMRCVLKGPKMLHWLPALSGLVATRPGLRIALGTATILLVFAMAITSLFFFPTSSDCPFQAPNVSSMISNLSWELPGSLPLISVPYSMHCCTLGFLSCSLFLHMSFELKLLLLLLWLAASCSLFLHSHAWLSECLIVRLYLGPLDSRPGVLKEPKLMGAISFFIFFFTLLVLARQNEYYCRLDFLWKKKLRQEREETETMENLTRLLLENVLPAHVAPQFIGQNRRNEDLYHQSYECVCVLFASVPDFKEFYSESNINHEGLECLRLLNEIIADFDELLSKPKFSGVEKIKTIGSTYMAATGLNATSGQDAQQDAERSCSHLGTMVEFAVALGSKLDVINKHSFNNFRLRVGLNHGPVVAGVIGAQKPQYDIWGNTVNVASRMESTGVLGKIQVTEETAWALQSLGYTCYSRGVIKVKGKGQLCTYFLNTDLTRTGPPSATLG
Nature of the assay: AC assay, Gsα-stimulated mAC4 in membranes from transfected HEK293 cells. The conditions noted are these: for activity [%] (100% = 300nM Gsα stimulation): mAC4. An outline of the steps: as §1

The target of a further assay is T5, mAC6 (Homo sapiens, UniProt O43306).
T5 construct: Human mAC genes were from GenScript and fitted with a C-terminal FLAG-tag; FLAG (C); made in house; host or cells: HEK293, permanently transfected; membrane preparation
Nature of the assay: AC assay, Gsα-stimulated mAC6 in membranes from transfected HEK293 cells. The conditions noted are these: for activity [%] (100% = 300nM Gsα stimulation): mAC6. An outline of the steps:
as §1

The next assay deals with T6, mAC8 (Homo sapiens, UniProt P40145).
T6 construct: Human mAC genes were from GenScript and fitted with a C-terminal FLAG-tag; FLAG (C); made in house; host or cells: HEK293, permanently transfected; membrane preparation
In words: AC assay, Gsα-stimulated mAC8 in membranes from transfected HEK293 cells. As to conditions: 20µM fatty acid concentration. An outline of the steps:
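Adenylyl cyclase activity was measured in 100,000 × g membrane fractions prepared from HEK293 cells permanently transfected with C-terminally FLAG-tagged human AC isoforms. Assays contained 1 mM ATP and 2 mM MgCl2 with an ATP-regenerating system at pH 7.5.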

Setting [1] is: 20 µM fatty acid, 300 nM Gsα, single experiments.
Setting [2] is: 6 µM, 300 nM Gsα, single experiments.
Where [3] appears, read: 30 µM, 300 nM Gsα, single experiments.
Where [4] appears, read: 100 µM, 300 nM Gsα, single experiments.

The structures appear in SMILES notation. “And” between values parts separate entries of the source, which are not always exact repeats. Identical values can stand only once. “Also recorded” adds a separate entry of the source. Like-named read-outs stand apart in the source and are kept apart here.

T3 sequence (O60266 whole entry): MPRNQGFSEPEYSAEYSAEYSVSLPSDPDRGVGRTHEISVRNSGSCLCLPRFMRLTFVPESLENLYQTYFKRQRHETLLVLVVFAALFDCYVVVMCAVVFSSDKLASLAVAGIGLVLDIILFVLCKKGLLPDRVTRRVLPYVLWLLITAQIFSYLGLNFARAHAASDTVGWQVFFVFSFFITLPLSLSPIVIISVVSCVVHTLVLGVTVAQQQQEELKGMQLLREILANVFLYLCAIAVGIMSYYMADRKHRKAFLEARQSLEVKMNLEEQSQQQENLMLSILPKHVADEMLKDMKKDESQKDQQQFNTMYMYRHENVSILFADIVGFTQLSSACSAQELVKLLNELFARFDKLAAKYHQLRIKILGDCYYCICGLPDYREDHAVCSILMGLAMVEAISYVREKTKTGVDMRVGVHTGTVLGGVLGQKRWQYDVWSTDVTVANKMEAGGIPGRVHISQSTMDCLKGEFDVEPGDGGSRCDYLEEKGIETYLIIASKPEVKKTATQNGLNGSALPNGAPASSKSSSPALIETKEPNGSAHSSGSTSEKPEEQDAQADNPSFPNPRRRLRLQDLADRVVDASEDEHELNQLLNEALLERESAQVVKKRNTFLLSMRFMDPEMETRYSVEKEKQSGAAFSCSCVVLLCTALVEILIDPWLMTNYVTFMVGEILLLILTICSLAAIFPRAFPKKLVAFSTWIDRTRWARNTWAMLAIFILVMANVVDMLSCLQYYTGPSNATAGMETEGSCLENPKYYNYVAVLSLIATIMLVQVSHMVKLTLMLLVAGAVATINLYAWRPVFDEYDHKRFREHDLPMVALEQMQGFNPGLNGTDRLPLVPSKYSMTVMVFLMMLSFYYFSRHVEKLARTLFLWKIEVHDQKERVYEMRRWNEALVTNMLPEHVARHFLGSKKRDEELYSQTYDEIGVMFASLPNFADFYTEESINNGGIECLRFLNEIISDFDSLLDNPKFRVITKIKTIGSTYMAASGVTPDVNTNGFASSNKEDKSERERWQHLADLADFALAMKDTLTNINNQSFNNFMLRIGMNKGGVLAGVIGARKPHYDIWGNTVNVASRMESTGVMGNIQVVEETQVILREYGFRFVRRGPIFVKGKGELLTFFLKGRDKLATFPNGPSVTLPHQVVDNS
T3 sequence (P63092 whole entry Q227L partner): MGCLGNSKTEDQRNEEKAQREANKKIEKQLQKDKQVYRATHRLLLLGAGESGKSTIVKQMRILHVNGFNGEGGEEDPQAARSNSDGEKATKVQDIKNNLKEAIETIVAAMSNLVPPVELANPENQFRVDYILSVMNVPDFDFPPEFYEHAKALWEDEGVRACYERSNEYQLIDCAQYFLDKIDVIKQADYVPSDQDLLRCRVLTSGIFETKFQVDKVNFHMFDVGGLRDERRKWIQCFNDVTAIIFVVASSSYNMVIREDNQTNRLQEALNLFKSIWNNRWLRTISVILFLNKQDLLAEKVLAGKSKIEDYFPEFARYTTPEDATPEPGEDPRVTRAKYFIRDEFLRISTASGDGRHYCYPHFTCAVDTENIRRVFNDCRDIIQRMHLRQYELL
T2 sequence (Q08462 whole entry): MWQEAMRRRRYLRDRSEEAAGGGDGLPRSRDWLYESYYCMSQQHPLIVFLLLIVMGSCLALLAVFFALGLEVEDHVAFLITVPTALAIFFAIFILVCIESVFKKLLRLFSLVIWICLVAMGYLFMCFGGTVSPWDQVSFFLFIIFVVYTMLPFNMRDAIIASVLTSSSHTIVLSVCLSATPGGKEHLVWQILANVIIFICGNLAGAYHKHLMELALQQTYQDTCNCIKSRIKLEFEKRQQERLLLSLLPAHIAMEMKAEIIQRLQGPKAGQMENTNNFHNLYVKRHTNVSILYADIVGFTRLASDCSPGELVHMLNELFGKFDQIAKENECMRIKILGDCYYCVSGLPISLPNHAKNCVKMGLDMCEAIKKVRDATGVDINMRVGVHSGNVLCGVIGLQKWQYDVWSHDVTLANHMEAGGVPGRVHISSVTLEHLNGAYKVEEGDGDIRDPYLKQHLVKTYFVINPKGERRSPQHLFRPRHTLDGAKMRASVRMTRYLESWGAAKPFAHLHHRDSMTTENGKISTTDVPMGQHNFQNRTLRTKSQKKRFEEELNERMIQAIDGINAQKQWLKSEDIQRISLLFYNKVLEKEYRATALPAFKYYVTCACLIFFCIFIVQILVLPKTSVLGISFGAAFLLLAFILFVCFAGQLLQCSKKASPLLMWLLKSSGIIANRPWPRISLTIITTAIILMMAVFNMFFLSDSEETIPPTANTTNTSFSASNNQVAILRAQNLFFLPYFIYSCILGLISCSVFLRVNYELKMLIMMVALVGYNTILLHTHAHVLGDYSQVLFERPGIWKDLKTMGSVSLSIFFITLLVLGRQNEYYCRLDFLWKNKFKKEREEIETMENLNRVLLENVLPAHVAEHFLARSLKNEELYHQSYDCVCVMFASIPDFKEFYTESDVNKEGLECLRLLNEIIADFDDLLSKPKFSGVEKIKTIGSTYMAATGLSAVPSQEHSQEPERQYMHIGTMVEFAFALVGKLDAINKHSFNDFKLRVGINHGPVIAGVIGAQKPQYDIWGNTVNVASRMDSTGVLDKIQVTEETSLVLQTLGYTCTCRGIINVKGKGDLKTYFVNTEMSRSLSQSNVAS
T2 sequence (P63092 2-394 Q227L partner): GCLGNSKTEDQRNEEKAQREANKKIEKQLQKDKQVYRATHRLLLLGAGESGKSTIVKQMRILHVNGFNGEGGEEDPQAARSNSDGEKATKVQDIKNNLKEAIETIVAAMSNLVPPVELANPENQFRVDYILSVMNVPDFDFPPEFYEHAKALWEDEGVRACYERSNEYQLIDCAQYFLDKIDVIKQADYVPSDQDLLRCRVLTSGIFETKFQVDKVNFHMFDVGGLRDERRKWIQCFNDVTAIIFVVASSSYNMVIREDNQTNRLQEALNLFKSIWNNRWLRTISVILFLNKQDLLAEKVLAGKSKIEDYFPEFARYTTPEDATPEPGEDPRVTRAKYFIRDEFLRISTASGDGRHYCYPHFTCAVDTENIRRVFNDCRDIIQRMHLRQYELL
T6 sequence (P40145 whole entry): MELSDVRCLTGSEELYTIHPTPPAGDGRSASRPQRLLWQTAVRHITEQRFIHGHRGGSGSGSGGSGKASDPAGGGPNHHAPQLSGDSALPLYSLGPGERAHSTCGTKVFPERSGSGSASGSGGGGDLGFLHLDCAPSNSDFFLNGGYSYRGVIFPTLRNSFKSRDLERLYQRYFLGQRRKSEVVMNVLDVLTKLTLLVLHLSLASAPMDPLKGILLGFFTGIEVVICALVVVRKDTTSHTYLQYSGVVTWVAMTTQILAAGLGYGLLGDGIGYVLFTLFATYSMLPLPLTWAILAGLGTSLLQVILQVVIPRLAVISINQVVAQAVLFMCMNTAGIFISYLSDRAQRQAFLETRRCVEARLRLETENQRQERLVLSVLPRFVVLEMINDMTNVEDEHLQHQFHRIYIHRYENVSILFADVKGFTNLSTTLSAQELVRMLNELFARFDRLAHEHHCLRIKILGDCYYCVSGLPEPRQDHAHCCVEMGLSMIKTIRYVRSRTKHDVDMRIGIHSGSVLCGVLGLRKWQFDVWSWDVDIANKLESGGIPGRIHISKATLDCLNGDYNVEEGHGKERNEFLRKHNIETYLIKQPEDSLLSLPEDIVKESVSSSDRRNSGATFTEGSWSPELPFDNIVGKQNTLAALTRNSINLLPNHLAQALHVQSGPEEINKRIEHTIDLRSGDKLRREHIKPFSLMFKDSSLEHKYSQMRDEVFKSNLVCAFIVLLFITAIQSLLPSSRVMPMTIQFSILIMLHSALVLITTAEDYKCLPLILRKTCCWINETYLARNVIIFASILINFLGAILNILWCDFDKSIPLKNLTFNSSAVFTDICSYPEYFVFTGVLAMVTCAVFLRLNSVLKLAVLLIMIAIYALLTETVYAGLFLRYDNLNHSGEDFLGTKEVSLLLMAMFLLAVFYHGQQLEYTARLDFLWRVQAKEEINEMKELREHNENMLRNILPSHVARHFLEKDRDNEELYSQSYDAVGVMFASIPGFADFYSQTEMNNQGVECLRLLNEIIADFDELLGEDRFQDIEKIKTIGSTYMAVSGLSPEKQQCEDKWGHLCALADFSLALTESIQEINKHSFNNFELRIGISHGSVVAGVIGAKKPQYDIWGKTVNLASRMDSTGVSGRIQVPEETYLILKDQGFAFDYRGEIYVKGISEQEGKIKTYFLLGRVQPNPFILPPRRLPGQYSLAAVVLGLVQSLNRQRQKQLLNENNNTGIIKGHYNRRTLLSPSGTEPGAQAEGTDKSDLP

Take `CCCCCCCCCCCCCCCCCC(=O)O` [Stearic acid, Stearic (octadecanoic) acid]: the “mAC1 activity [%] (100% = 300nM Gsα stimulation); 20µM fatty acid concentration” value on mAC1 (setting [1]) was 126% and 77% and 95%. The “mAC2 activity [%] (100% = 300nM Gsα stimulation); 20µM fatty acid concentration” value on mAC2 is 100% and 101% and 84% and 89%. For the same compound, the “Effect of lipid on 300 nM Gsα-stimulated mAC3” value on mAC3 (20 µM, in words) was “no significant effect; also recorded: inactive”. Further, the “mAC3 activity [%] (100% = 300nM Gsα stimulation)” value at mAC3 (fatty acid 0.5 µM) is 100%; at mAC3 (fatty acid 1 µM), 121% and 48% and 49% and 110% and 79%; at mAC3 (fatty acid 3 µM), 84% and 77% and 52% and 121% and 116%; at mAC3 (fatty acid 6 µM) it was 91% and 103% (2×) and 32% and 75%; at mAC3 (fatty acid 10 µM), 69% and 84% and 76% and 71% and 80% and 79%; at mAC3 (fatty acid 20 µM) it was 115% and 83% and 68% and 70% and 65% and 160%. The “mAC4 activity [%] (100% = 300nM Gsα stimulation); 20µM fatty acid concentration” value at mAC4 (setting [1]) was 79% and 60% and 83%. Also, at mAC6 (20µM fatty acid concentration), the “mAC6 activity [%] (100% = 300nM Gsα stimulation)” value was 88% and 61% and 94% and 93%. At mAC8, the “mAC8 activity [%] (100% = 300nM Gsα stimulation)” value is 107% and 102%.
`CCCCC/C=C\C/C=C\C/C=C\C/C=C\CCCC(=O)NCCO` [Anandamide, arachidonoylethanolamide]: the IC50 is 29 µM at mAC1; 23 µM and 22 µM on mAC6 (attenuation of 300 nM Gsα-stimulated activity). For the same compound, the “activity [%] (100% = 300nM Gsα stimulation)” value was 100% at mAC1 (Anandamide 0.1 µM); 81% and 83% and 116% and 100% and 88% at mAC1 (Anandamide 1 µM); 98% and 83% and 114% and 101% and 97% at mAC1 (Anandamide 3 µM); 92% and 80% and 101% and 94% and 81% at mAC1 (Anandamide 10 µM); 41% and 63% and 74% and 78% and 71% on mAC1 (Anandamide 30 µM); 39% and 40% and 53% and 59% and 57% at mAC1 (Anandamide 60 µM). For the same compound, the “activity [%] (100% = 300nM Gsα stimulation)” value on mAC3 (100µM Anandamide concentration, Figure 9 D) is 165%; on mAC3 (Anandamide 0.1 µM), 100%; on mAC3 (Anandamide 1 µM) it was 87% and 101% and 117% and 100% and 94% and 127% and 77%; at mAC3 (Anandamide 10 µM) it was 105% and 80% and 130% and 120% and 88% and 111% and 112% and 137%; at mAC3 (Anandamide 30 µM), 96% and 65% and 85% and 72% and 94% and 68% and 100% and 101%; at mAC4 (Anandamide 0.1 µM), 100%. Besides, the “activity [%] (100% = 300nM Gsα stimulation)” value was 86% and 113% and 96% and 121% and 82% on mAC4 (Anandamide 3 µM); 107% on mAC4 (Anandamide 30 µM); 100% at mAC6 (Anandamide 0.1 µM); 100% and 94% on mAC6 (Anandamide 0.5 µM); 89% at mAC6 (Anandamide 1 µM); 89% at mAC6 (Anandamide 20 µM). In addition, the “activity [%] (100% = 300nM Gsα stimulation)” value at mAC6 (Anandamide 30 µM) was 60% and 59% and 57% and 63% and 40%; on mAC6 (Anandamide 35 µM), 73%; at mAC6 (Anandamide 100 µM), 26%. In addition, the “Effect of anandamide on Gsα-stimulated mAC4” value at mAC4 (concentration–response, higher concentrations, in words) was “distinctly not”.
Consider `CCCCC/C=C\C/C=C\C/C=C\C/C=C\CCCC(=O)O` [Arachidonic acid, Arachidonic ((5Z,8Z,11Z,14Z)-eicosatetraenoic) acid], for which, on mAC1 (20 µM, in words), the “Effect of lipid on 300 nM Gsα-stimulated mAC1” value is given as “significantly attenuated”. Besides, the IC50 on mAC1 (attenuation of 300 nM Gsα-stimulated activity, read-out: IC50 for mAC1) amounted to 23 µM; against mAC4 it was 36 µM. The “activity [%] (100% = 300nM Gsα stimulation)” value at mAC1 (setting [2]) was 84% and 119% and 80% and 96% and 100% and 86% and 114% and 97%; at mAC1 (setting [3]), 58% and 69% and 46%; at mAC1 (60 µM, 300 nM Gsα, single experiments) it was 12% and 11%; on mAC1 (setting [4]), 12% and 2% and 3%; at mAC4 (1 µM, 300 nM Gsα, single experiments), 68% and 108% and 85% and 103% and 89% and 87% and 67% and 75%; on mAC4 (3 µM, 300 nM Gsα, single experiments) it was 72% and 95% and 69% and 73% and 97% and 106% and 108%. The “activity [%] (100% = 300nM Gsα stimulation)” value on mAC4 (setting [2]) was 70% and 85% and 107% and 83% and 91% and 126%; on mAC4 (setting [3]), 84% and 74% and 88%; at mAC4 (setting [4]), 22% and 14% and 13%. Moreover, the “mAC2 activity [%] (100% = 300nM Gsα stimulation); 20µM fatty acid concentration” value at mAC2 was 133% and 137% and 152% and 99% and 147%. On mAC3 (fatty acid 20 µM), the “mAC3 activity [%] (100% = 300nM Gsα stimulation)” value is 115% and 168% and 182% and 127%. In addition, the “Effect of lipid on 300 nM Gsα-stimulated mAC4” value at mAC4 (20 µM, in words) was “significantly attenuated”. Also, the “mAC8 activity [%] (100% = 300nM Gsα stimulation)” value on mAC8 was 90% and 106% and 87%.

Values taken from article PMC11606603, “The membrane domains of mammalian adenylyl cyclases are lipid receptors” (eLife, 2024).
